Assays:
DP Receptor = target: T1, DP Receptor (Homo sapiens, UniProt Q13258); assay: Radioligand binding assay, [3H]PGD2, CHO/DP cell membranes; conditions: [3H]PGD2 displacement, membranes of CHO cells transfected with DP
T1 construct: expressed in transfected cells; host or cells: Chinese Hamster Ovary (CHO) cells, membranes
T1 sequence (Q13258 1-359): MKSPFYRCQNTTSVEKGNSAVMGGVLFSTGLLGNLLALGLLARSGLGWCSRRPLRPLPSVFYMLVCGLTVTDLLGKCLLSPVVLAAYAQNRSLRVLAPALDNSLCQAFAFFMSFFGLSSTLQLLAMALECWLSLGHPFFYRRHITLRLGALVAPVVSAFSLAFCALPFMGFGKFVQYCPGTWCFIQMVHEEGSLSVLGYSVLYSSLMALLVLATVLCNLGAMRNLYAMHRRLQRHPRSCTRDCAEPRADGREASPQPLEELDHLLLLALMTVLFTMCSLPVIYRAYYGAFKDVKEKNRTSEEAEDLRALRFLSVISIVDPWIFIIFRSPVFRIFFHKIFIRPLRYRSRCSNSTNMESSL
Description: (§1) Chinese Hamster Ovary cells were transfected with CRTH2 or DP receptors (CHO/CRTH2 and CHO/DP) and were maintained in culture in a humidified atmosphere at 37° C. (5% CO2) in Minimum Essential Medium (MEM) supplemented with 10% foetal bovine serum, 2 mM glutamine, and 1 mg ml^−1 active G418. The cells were passaged every 2-3 days. For radioligand binding assay, cells were prepared in triple-layer flasks or in 175 cm^2 square flasks (for membrane preparation). For calcium mobilisation assay, cells were grown in a 96 well plate 24h prior to the assay at a density of 80,000 cells per well.
(§2) Membranes were prepared either from CHO/CRTH2 and CHO/DP cells, or from platelets (as a source of TP receptors). CHO cells grown to confluency were washed with PBS and detached using a Versene solution (15 ml per flask). When the cells were grown in 175 cm^2 square flask, they were collected by scrapping in PBS. The cell suspensions were centrifuged (1,700 rpm, 10 min, 4° C.) and resuspended in 15 ml of buffer (1×HBSS, supplemented with 10 mM HEPES, pH 7.3). Cell suspensions were then homogenised using an Ultra Turrax at setting 4-6 for 20 s. The homogenate was centrifuged at 1,700 rpm for 10 min and the supernatant was collected and centrifuged at 20,000 rpm for 1 h at 4° C. The resulting pellet was resuspended in buffer and stored at −80° C. in aliquots of 200-500 μl. The protein concentration was determined by the method of Bradford (1976), using bovine serum albumin as standard. The platelets were washed by centrifugation at 600×g for 10 min and resuspended in ice-cold assay buffer (10 mM Tris-HCl, pH 7.4, 5 mM Glucose, 120 mM NaCl, 10 μM indomethacin) and directly centrifuged at 20,000 rpm for 30 min at 4° C. […]
(§3) [^3H]PGD2 (160 Ci/mmol) binding experiments were performed on membranes prepared as described above. […] The Unifilter plates were dried at room temperature for at least 1 h and the radioactivity retained on the filters was determined on a Beta Trilux counter (PerkinElmer Life Sciences), following addition of 40 μl of Optiphase Hi-Safe 3 (Wallac) liquid scintillation. […]

CRTH2 Receptor = target: T2, CRTH2 Receptor (Homo sapiens, UniProt Q9Y5Y4); assay: Radioligand binding assay, [3H]PGD2, CHO/CRTH2 cell membranes; conditions: [3H]PGD2 displacement, membranes of CHO cells transfected with CRTH2
T2 construct: expressed in transfected cells; host or cells: Chinese Hamster Ovary (CHO) cells, membranes
T2 sequence (Q9Y5Y4 1-395): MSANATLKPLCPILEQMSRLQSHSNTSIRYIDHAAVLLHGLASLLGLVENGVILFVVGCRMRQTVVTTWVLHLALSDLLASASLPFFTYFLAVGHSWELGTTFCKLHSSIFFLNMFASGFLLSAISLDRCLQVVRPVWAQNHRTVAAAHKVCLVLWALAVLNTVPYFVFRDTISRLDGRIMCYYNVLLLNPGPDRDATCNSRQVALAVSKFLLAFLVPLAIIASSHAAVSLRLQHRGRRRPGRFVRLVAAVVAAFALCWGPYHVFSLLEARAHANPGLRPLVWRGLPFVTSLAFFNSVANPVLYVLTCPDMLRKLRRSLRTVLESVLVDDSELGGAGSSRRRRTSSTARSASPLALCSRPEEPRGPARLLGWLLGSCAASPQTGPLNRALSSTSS
Description: as §1, §2, §3

SMILES | Ki (DP Receptor) [nM] | Ki (CRTH2 Receptor) [nM]
Cc1c(Cc2cccn2S(=O)(=O)c2ccccc2)c2cc(F)ccc2n1CC(=O)O [Compound 1, [3-(1-Benzenesulfonyl-1H-pyrrol-2-ylmethyl)-5-fluoro-2-methyl-indol-1-yl]-acetic acid] | 9200 | 1
Cc1c(Cc2cccn2S(=O)(=O)c2ccc(F)cc2F)c2cc(F)ccc2n1CC(=O)O [Compound 3, {3-[1-(2,4-Difluoro-benzenesulfonyl)-1H-pyrrol-2-ylmethyl]-5-fluoro-2-methyl-indol-1-yl}-acetic acid] | 8000 | 2
Cc1ccc(S(=O)(=O)n2cccc2Cc2c(C)n(CC(=O)O)c3ccc(F)cc23)cc1 [Compound 2, {5-Fluoro-2-methyl-3-[1-(toluene-4-sulfonyl)-1H-pyrrol-2-ylmethyl]-indol-1-yl}-acetic acid] | 1800 | 0.2

Reference: patent US8044088B2, “1-acetic acid-indole derivatives with PGD2 antagonist activity” (Oxagen Limited, priority 2005, dated 2011)
